Measurements: US20250313526A1, “PYRETHROID COMPOUND CONTAINING DOUBLE BONDS AND CYANO GROUPS, SYNTHESIS METHOD THEREFOR, AND APPLICATION THEREOF” (Jiangsu Yangnong Chemical Co., Ltd., priority 2022, published 2025)

Assays:
Format in all cases: in vivo
[1] = tested on: Flies; assay: Insecticidal aerosol efficacy, sealed drum apparatus (GB/T13917.2-2009), flies; details: 1 g sprayed; for Mortality rate: aerosol 0.3% active ingredient, 24 h; for KT50: aerosol containing 0.3% active ingredient
Procedure: (§1) 0.3 parts by weight of compound 1 with 59.7 parts by weight of kerosene were heated and evenly mixed to prepare an insecticide. The resulting preparation was placed in an aerosol can equipped with a valve, through which 40.0 parts by weight of propane and butane were injected underpressure, to obtain an insecticidal aerosol containing 0.3% compound 1.
(§2) The insecticidal aerosol was tested for efficacy on mosquitoes, flies, and German cockroaches in accordance with GB/T13917.2-2009, using a sealed drum apparatus. The specific process was as follows: placing the test insects into a tank, and after the test insects resumed normal activities, quantitatively spraying 1 g of the agent from the insecticidal aerosol can, pulling out the baffle after 1 min to make the test insects in contact with the agent, immediately starting timing and recording the number of the test insects knocked down at regular intervals, transferring all the test insects to a clean insect rearing cage after 20 min, and checking the number of dead insects after 24 h, wherein the German cockroaches were tested for 72-h mortality rate.
(§3) The aerosols of compounds 1-3, Momflurothrin and tetramethylfluthrin were prepared according to Test Example 2, and were tested for efficacy.

[2] = tested on: female mosquitoes of Culex pipiens pallens; assay: Mosquito-repellent incense mosquito-killing efficacy, sealed drum apparatus (GB/T13917.4-2009); details: for KT50: mosquito-repellent incense W1-W5, active ingredient 0.04 w/w %, incense burnt 1 min, 20 female Culex pipiens pallens
Procedure: 99.96 parts by weight of a mixture consisting of corn starch, carbon powder and wood powder (1:5:4) were added with 120 parts by mass of water, kneaded into shape, and then dried to form a mosquito-repellent incense substrate (with a diameter of 12.0 cm, a thickness of 4 mm, and a pair weighing 40 g).
On the other hand, a 0.4 w/v % solution of compound 1 in kerosene was prepared. The set of incense substrate was uniformly spray-coated with 4 ml of the above solution using a microsyringe, and then left to dry at room temperature for 3 h to obtain a set of mosquito-repellent incense W1 containing 0.04 w/w % compound 1.
Similarly, compounds 2-3 of the present invention shown in Table 1, as well as Momfluorothrin and tetramethylfluthrin were prepared respectively to obtain corresponding mosquito-repellent incenses W2 to W5.
The mosquito-repellent incenses W2 to W5 were measured and compared in terms of mosquito-killing efficacy in accordance with GB/T13917.4-2009. […] The specific process was as follows: sucking 20 test mosquitoes with a mosquito suction tube, placing them into a sealed drum apparatus, taking a section of mosquito-repellent incense to be tested and placing it on an incense holder, lighting the incense and starting timing, removing the mosquito-repellent incense after 1 min, and recording the number of test mosquitos knocked down at regular intervals.

[3] = tested on: Mosquitoes; assay: Insecticidal aerosol efficacy, sealed drum apparatus (GB/T13917.2-2009), mosquitoes; details: for Mortality rate: aerosol 0.3% active ingredient, 24 h; for Mortality rate / KT50: 1 g sprayed, mosquitoes; for KT50: aerosol containing 0.3% active ingredient
Procedure: as §1, §2, §3

[4] = tested on: German cockroaches; assay: Insecticidal aerosol efficacy, sealed drum apparatus (GB/T13917.2-2009), German cockroaches; details: 1 g sprayed; for Mortality rate: aerosol 0.3% active ingredient, 72 h; for KT50: aerosol containing 0.3% active ingredient
Procedure: as §1, §2, §3

[5] = Rat acute oral toxicity; details: in vivo, read-out: rat acute oral toxicity median lethal dose (LD50)
[6] = tested on: rat; assay: Rat acute oral toxicity
[7] = Rat acute dermal toxicity; details: in vivo, topical or ocular, read-out: rat acute dermal toxicity median lethal dose (LD50)
[8] = tested on: rat; assay: Rat acute dermal toxicity

SMILES | Mortality rate [1] [%] | KT50 [1] [min] | KT50 [2] [min] | Mortality rate [3] [%] | KT50 [3] [min] | Mortality rate [4] [%] | KT50 [4] [min] | LD50 [5] [mg/kg] | acute oral toxicity classification [6] | LD50 [7] [mg/kg] | acute dermal toxicity classification [8] | activity as mosquito-repellent incense ([2]; as mosquito-repellent incense) | knockdown activity against mosquitoes ([3]; as an aerosol in a cylindrical container)
CC1(C)C(/C=C\C#N)C1C(=O)OCc1c(F)ccc(F)c1F (centres unmarked) [Compound 2, 2,3,6-trifluorobenzyl (Z)-3-(2-cyanovinyl)-2,2-dimethylcyclopropanecarboxylate] | 100 | 4.65 | 5.42 | 100 | 3.58 | 90 | 6.26 |  |  |  |  |  | 
CC1(C)C(/C=C\C#N)C1C(=O)OCc1c(F)c(F)cc(F)c1F (centres unmarked) [Compound 3, 2,3,5,6-tetrafluorobenzyl (Z)-3(2-cyanovinyl)-2,2-dimethylcyclopropanecarboxylate] | 100 | 3.45 | 4.65 | 100 | 2.45 | 95 | 5.52 | > 5000 | slightly toxic | > 5000 | slightly toxic |  | 
COCc1c(F)c(F)c(COC(=O)C2C(C)(C)C2(C)C)c(F)c1F [tetramethylfluthrin, reference compound] | 80 | 8.56 | 9.23 | 100 | 6.46 | 65 | 9.12 |  |  |  |  |  | 
COCc1c(F)c(F)c(COC(=O)C2C(/C=C(/C)C#N)C2(C)C)c(F)c1F (centres unmarked) [Momfluorothrin, reference compound] | 70 | 15.28 | 27.87 | 100 | 12.35 | 60 | 17.56 |  |  |  |  | relatively poor activity | good knockdown activity
CC1(C)C(/C=C\C#N)C1C(=O)OCc1cc(F)cc(F)c1F (centres unmarked) [Compound 1, 2,3,5-trifluorobenzyl (Z)-3-(2-cyanovinyl)-2,2-dimethylcyclopropanecarboxylate] | 100 | 2.32 | 2.45 | 100 | 1.33 | 95 | 4.05 |  |  |  |  |  | 
